The record followed here is patent publication US11857604B2, “Nanovectors and uses” (NH THERAGUIX, priority 2017, dated 2024).

Where only a bound is given, the exact number is not on record here.

The series can be described thus: physisorption of active substance on nanoparticles: tangential filtration (3 kDa Vivaspin), subnatant analysed by UV-visible/fluorescence. The series is classed as physicochemical. Particulars: for concentration up to which retention of the active substance is observed (minimum) / load content by weight: AGuIX® at 100 mM [Gd3+] = 100 g/l of nanoparticles. The protocol:
During the various examples, the maximum drug load content on polysiloxane nanoparticles was determined, when said particles are present at a concentration corresponding to a concentration used during clinical trials for the nanoparticle in question. Increasing concentrations of active substances were thus brought into contact with the nanoparticles. Solutions are purified by tangential filtration. The molecules which have not be able to adsorb to the surface of the nanoparticles pass through the membrane and are found in the subnatant, where they can be detected by spectroscopic techniques such as UV/Visible absorption or else fluorescence spectroscopy (FIG. 2).
This solution is placed in a 3 kDa Vivaspin®, and a tangential filtration cycle is carried out in order to obtain a supernatant of 200 μl. The subnatant is analysed by UV-visible analysis. The supernatant is diluted 50-fold and is analysed by UV-visible analysis.
This solution is placed in a 3 kDa Vivaspin®, and a tangential filtration cycle is carried out so as to obtain a supernatant of 200 μl. The subnatant is analysed by UV-visible analysis and fluorometry after 20-fold dilution.
This solution is placed in a 3 kDa Vivaspin®, and a tangential filtration cycle is carried out so as to obtain a supernatant of 160 μl. The subnatant is analysed by UV-visible analysis. The cisplatin is detectable by UV/VIS absorption at a wavelength of 706 nm after reaction with ODPA. For the reaction with cisplatin, a solution of ODPA at 1.4 mg/ml and a phosphate buffer (pH 6.8) are prepared. The subnatant is diluted 5-fold. 140 μl of this solution are added to 200 μl of buffer and 100 μl of ODPA. The resulting solution is heated at 100° C. for 15 min. Once the reaction is finished and the temperature has returned to ambient temperature, 560 μl of DMF are added. The final solution is filtered and then analysed by UV-visible analysis.

As for tyr3-octreotate [TATE peptide], the “concentration up to which retention of the active substance is observed (minimum)” value (from here on “concentration up to which retention”) was at least 2000 µg/mL and the “load content by weight” value was “greater than 20 mg/g of nanoparticles”. Also, the “limiting concentration up to which the peptide adsorbs at the surface of the nanoparticles” value (AGuIX® 100 mM, absorption at 280 nm of subnatants (FIG. 12)) is on record as “approximately 2 g·L^1”.

Consider `COc1cccc2c1C(=O)c1c(O)c3c(c(O)c1C2=O)C[C@@](O)(C(=O)CO)C[C@@H]3O[C@H]1C[C@H](N)[C@H](O)[C@H](C)O1` [doxorubicin], for which the “concentration up to which retention” value was at least 112 µg/mL and the “load content by weight” value is on record as “greater than 1.12 mg/g of nanoparticles”.

Regarding `N.N.[Cl][Pt][Cl]` [cisplatin], the “concentration up to which retention” value is at least 240 µg/mL and the “load content by weight” value is “greater than 2.4 mg/g of nanoparticles”. For the same compound, the “limiting concentration up to which cisplatin adsorbs at the surface of the nanoparticles” value (AGuIX® 100 mM, absorption at 706 nm of ODPA-treated subnatants (FIG. 16)) is “approximately 240 mg·L^−1”.
